# “Also recorded” adds a separate entry of the source. Counter-ions that a name gives are not always drawn. Like-named read-outs stand apart in the source and are kept apart here.
# What was measured:
# [1] = system: MCF-7, MDA-MB-231, and Ishikawa cell lines; assay: Antiproliferative activity, summary statements over the three cell lines; assay type: cell-based, human; details: MCF-7, MDA-MB-231 and Ishikawa cell lines together
# From the text: (§1) Numerous substituted THIQs were systematically synthesized employing molecular design and structure activity relationship studies (Suresh et al., (2014) Lett. Drug Design & Discov. 11: 428-436; Gangapuram et al., (2014) J. Cancer Sci. Ther. 6: 161-169). The compounds' cytotoxic effects on MCF-7 (estrogen receptor positive breast cancer) cell lines, MDA-MB-231 (estrogen receptor negative breast cancer) cell lines and Ishikawa cell lines using CellTiter-Glo (CTG) luminescent cell viability essay were studied. The tests were done on different concentrations of the compounds ranging from 0.01 to 100,000 nM on 5000 MCF-7 cells/well, on 5000 MDA-MB-231 cells/well and on 5000 Ishikawa cells/well. Drug exposed cells were incubated at 37° C. for three days followed by CTG assay. Then IC50 values were generated from Graph Pad Prism 4.
# (§2) Chemistry: Several substituted tetrahydroisoquinolines 2d-2m, 3h, 3k, 3l, and 4a-4f were prepared according to three different procedures as shown in Schemes 1, 2 and 3 (FIGS. 2-4). […] The aminating agent 10 was prepared using a reported procedure (Tamura et al., (1972) J. Org. Chem. 40: 4133-4135). The amino salts of ring substituted 2-aminoisoquinolinium mesitylenesulfonates of general structure 11 used in the present study were prepared by the reaction of substituted isoquinolines and the aminating agent 10 as previously reported (Gangapuram et al., (2014) J. Cancer Sci. Ther. 6: 161-169). […] The aminating agent 13 was prepared using a reported procedure (Legault & Charette (2003) J. Org. Chem. 68: 7119-7122). The amino salts of ring substituted 2-aminoisoquinolinium compounds of general structure 14 were obtained with the reaction of the substituted isoquinolines and the aminating agent 13 in CH3CN heated at 50° C. for 24 hours. Without further purification, the salts were used to prepare the N-ylides by reaction with substituted acyl/sulfonyl chlorides. […] N-Oxidation of commercially available ring substituted THIQs followed by the reduction of the NO group using standard zinc/acetic acid led to the synthesis of N-amino THIQs.
# (§3) The antiproliferative activities of substituted tetrahydroisoquinolines 2a-2m, 3a-3l and 4a-4f were evaluated according to the procedure reported previously (Crouch et al., (1993) J. Immunol. Methods 160: 81-88).
# (§4) Human MCF-7 and MDA-MB-231 breast cancer cell lines were purchased from the NCI. The human Ishikawa endometrial cancer cell line was purchased from Sigma Aldrich. All three cell lines were cultured in phenol red-free RPMI-1640 (Hyclone) (500 mL) supplemented with L-glutamine-dipeptide (Hyclone) (5 mL), and 10% fetal bovine serum (Atlanta Biologicals) (50 mL).
# (§5) The cell lines were cultured and treated with compounds under study including the standard TAM ranging from 0.01 nM to 100,000 nM concentration in the presence of 10 nM estradiol using the previous reported method (Suresh et al., (2014) Lett. Drug Des. Discov. 11: 428-436).
# [2] = system: MCF-7 (ER positive breast cancer cell line); assay: CellTiter-Glo antiproliferative activity, MCF-7 cell line; assay type: cell-based, human; details: for antiproliferative activity against MCF-7 cell line in words: based on IC50 value; for IC50: Homo sapiens, MCF7
# From the text: as §1, §2, §3, §4, §5
# (§6) The amount of ATP is determined using a system based on luciferase and D-luciferin resulting in light generation.
# [3] = system: Ishikawa (endometrial) cancer cell line; assay: CellTiter-Glo antiproliferative activity, Ishikawa cell line; assay type: cell-based, human; details: 72 h exposure; for IC50: Homo sapiens, Ishikawa
# From the text: as §1, with “4. […]” for “4.”
# as §3, §4, §5, §6
# [4] = system: MDA-MB-231 (ER negative breast carcinoma cell line); assay: CellTiter-Glo antiproliferative activity, MDA-MB-231 cell line; assay type: cell-based, human; details: 72 h exposure; for IC50: Homo sapiens, MDA-MB-231
# From the text: as §1, §2, §3, §4, §5
# [5] = in the presence of 10 nM estradiol
# [6] = Table 2, 72 h exposure, estradiol added, read-out: IC50 MCF-7
# [7] = Table 2, estradiol added, read-out: IC50 Ishikawa
# [8] = Table 1, 72 h exposure, in the presence of 10 nM estradiol
# [9] = Table 1, in the presence of 10 nM estradiol
# [10] = Table 1, 72 h exposure, in the presence of 10 nM estradiol, read-out: IC50 MCF-7
# [11] = in the presence of 10 nM estradiol, read-out: IC50 against Ishikawa cell line
# [12] = Table 1, in the presence of 10 nM estradiol, read-out: IC50 Ishikawa
Compound,"IC50 MCF-7 [2, 8] [µg/mL]","IC50 Ishikawa [3, 9] [µg/mL]","IC50 MDA-MB-231 [4, 9] [µg/mL]","IC50 [2, 10] [µg/mL]",melting point [°C],"IC50 [3, 12] [µg/mL]","IC50 [4, 9] [µg/mL]",further results
"CCc1ccc(C(=O)NN2CCc3cccc(O)c3C2)cc1 [Compound 2i, 4-Ethyl-N-(8-hydroxy-3,4-dihydroisoquinolin-2(1H)-yl) benzamide]",–,–,–,–,–,–,–,"antiproliferative activity in words [1]: active; IC50 against MCF-7 cell line ([2]; 72 h exposure, in the presence of 10 nM estradiol): 0.61 µg/mL; selectivity towards ER(+) MCF-7 compared to ER(−) MDA-MB-231 cell lines ([2]; MCF-7 versus MDA-MB-231 IC50): significant selectivity; also recorded: reasonable selectivity; antiproliferative activity against MCF-7 cell line in words [2]: very active; IC50 against Ishikawa cell line [3, 5]: 0.09 µg/mL; IC50 against MDA-MB-231 cell line [4, 5]: 1.36 µg/mL"
"CCc1ccc(C(=O)NN2CCc3ccccc3C2c2ccco2)cc1 (stereo not drawn) [Redda-EVK-I-135, 4-Ethyl-N-(1-(furan-2-yl)-3,4-dihydroisoquinolin-2(1H)-yl)benzamide]",–,–,–,–,–,–,–,"IC50 [2, 6]: 2.39 µg/mL; IC50 [3, 7]: 1.71 µg/mL; IC50 ([4]; Table 2, estradiol added): 3.88 µg/mL"
"CC(C)(C)c1ccc(C(=O)NN2CCc3c(O)cccc3C2)cc1 [Compound 3b, 4-(tert-butyl)-N-(5-Hydroxy-3,4-dihydroisoquinolin-2(1H)-yl) benzamide]",7.92,10.96,10.25,–,–,–,–,–
"COc1cccc2c1CCN(NC(=O)c1ccc(C(C)(C)C)cc1)C2 [Compound 3a, 4-(tert-butyl)-N-(5-Methoxy-3,4-dihydroisoquinolin-2(1H)-yl) benzamide]",>33.84,>33.84,>33.84,–,–,–,–,–
"CCc1ccc(C(=O)NN2CCc3cc(C(=O)OC)ccc3C2)cc1 [Compound 3h, methyl-2-(4-ethylbenzamido)-1,2,3,4-tetrahydroisoquinoline-6-carboxylate]",–,–,–,15.2,–,8.64,16.1,–
"COc1ccccc1C(=O)NN1CCc2ccc(O)cc2C1 [Compound 2f, N-(7-hydroxy-3,4-dihydroisoquinolin-2(1H)-yl)-2-methoxybenzamide]",–,–,–,> 29.8,197.3 to 199.4,> 29.8,> 29.8,–
"CCc1ccccc1C(=O)NN1CCc2ccc(O)cc2C1 [Compound 2g, 2-Ethyl-N-(7-hydroxy-3,4-dihydroisoquinolin-2(1H)-yl) benzamide]",>29.64,>29.64,>29.64,–,–,–,–,–
"CCc1ccc(C(=O)NN2CCc3c(O)cccc3C2)cc1 [Compound 3f, 4-Ethyl-N-(5-hydroxy-3,4-dihydroisoquinolin-2(1H)-yl) benzamide]",18.61,9.93,15.61,–,–,–,–,–
"COc1cccc(C(=O)NN2CCc3ccc(O)cc3C2)c1 [Compound 2e, N-(7-hydroxy-3,4-dihydroisoquinolin-2(1H)-yl)-3-methoxybenzamide]",–,–,–,1.86,190.5 to 192.3,0.31,1.71,–
"CCc1ccc(C(=O)NN2CCc3cc(O)ccc3C2)cc1 [Compound 2h, 4-Ethyl-N-(6-hydroxy-3,4-dihydroisoquinolin-2(1H)-yl) benzamide]",>29.64,22.38,>29.64,–,–,–,–,–
"CC(C)(C)c1ccc(C(=O)NN2CCc3c(cccc3OCc3ccccc3)C2)cc1 [Compound 3e, N-(5-(Benzyloxy)-3,4-dihydroisoquinolin-2(1H)-yl)-4-(tertbutyl) benzamide]",>41.45,>41.45,>41.45,–,–,–,–,–
"CCc1ccc(C(=O)NN2CCc3ccc(OS(N)(=O)=O)cc3C2)cc1 [Redda-GM-4-171, 2-(4-Ethylbenzamido)-1,2,3,4-tetrahydroisoquinolin-7-yl-sulfamate]",–,–,–,–,–,–,–,"IC50 [2, 6]: 2.14 µg/mL; IC50 [3, 7]: 0.12 µg/mL; IC50 ([4]; Table 2, estradiol added): 2.53 µg/mL"
"CCc1ccc(C(=O)NN2CCc3cccc(N)c3C2)cc1 [Compound 2k, N-(8-amino-3,4-dihydroisoquinolin-2(1H)-yl)-4-ethylbenzamide]",–,–,–,2.23,223.5 to 224.8,0.6,16.8,–
"Nc1ccc(C(=O)NN2CCc3ccc(Br)cc3C2)cc1 [Compound 2l, 4-Amino-N-(7-bromo-3,4-dihydroisoquinolin-2(1H)-yl) benzamide]",2.80,1.09,9.86,–,–,–,–,–
"COc1ccc(C(=O)NN2CCc3ccc(O)cc3C2)cc1 [Compound 2d, N-(7-hydroxy-3,4-dihydroisoquinolin-2(1H)-yl)-4-methoxybenzamide]",–,–,–,> 29.8,192.5 to 194.3,0.99,25.2,–
"CCc1ccc(C(=O)NN2CCc3ccc(Cl)cc3C2)cc1 [Redda-EVK-I-132, N-(7-Chloro-3,4-dihydroisoquinolin-2(1H)-yl)-4-ethylbenzamide]",–,–,–,–,–,–,–,"IC50 [2, 6]: 0.678 µg/mL; IC50 [3, 7]: 0.318 µg/mL; IC50 ([4]; Table 2, estradiol added): 0.826 µg/mL"

# Further lines, with some results ahead:
"IC50 MCF-7 [2, 8] [µg/mL]","IC50 Ishikawa [3, 9] [µg/mL]","IC50 MDA-MB-231 [4, 9] [µg/mL]","IC50 [2, 10] [µg/mL]",melting point [°C],"IC50 [3, 12] [µg/mL]","IC50 [4, 9] [µg/mL]",Compound,further results
–,–,–,2.49,205 to 206,0.98,3.74,"CCc1ccc(C(=O)NN2CCc3cc(Cl)ccc3C2)cc1 [Compound 4e, N-(6-Chloro-3,4-dihydroisoquinolin-2(1H)-yl)-4-ethylbenzamide]","IC50 [3, 11]: < 7.87 µg/mL"
–,–,–,1.28,–,0.9,1.76,"CCc1ccc(C(=O)NN2CCc3ccc(C#N)cc3C2)cc1 [Compound 4d, N-(7-Cyano-3,4-dihydroisoquinolin-2(1H)-yl)-4-ethylbenzamide]","IC50 ([2]; 72 h exposure, in the presence of 10 nM estradiol, read-out: IC50 against MCF-7 cell line): 1.28 µg/mL; antiproliferative activity against MCF-7 cell line in words [2]: moderate activity; IC50 [3, 11]: < 7.87 µg/mL"
–,–,–,26.4,162 to 167,> 30.5,> 30.5,"CCc1ccccc1C(=O)NN1CCc2ccc(C#N)cc2C1 [Compound 4a, N-(7-Cyano-3,4-dihydroisoquinolin-2(1H)-yl)-2-ethylbenzamide]",–
–,–,–,> 34.1,224 to 225,> 34.1,> 34.1,"CCc1ccc(C(=O)NN2CCc3cc(OC)c(OC)cc3C2)cc1 [Compound 4b, N-(6,7-Dimethoxy-3,4-dihydroisoquinolin-2(1H)-yl)-4-ethylbenzamide]",–
–,–,–,0.98,–,10.5,11.2,"O=C(c1ccc(OCCN2CCCCC2)cc1)c1c(-c2ccc(O)cc2)sc2cc(O)ccc12 [Raloxifene-Hydrochloride, reference compound]",–
–,–,–,> 32.4,251 to 253,> 32.4,> 32.4,"CCc1ccc(C(=O)NN2CCc3cc(C(=O)O)ccc3C2)cc1 [Compound 3k, 2-(4-Ethylbenzamido)-1,2,3,4-tetrahydroisoquinoline-6-carboxylic acid]",–

# Reference: patent publication US10730840B2, “Substituted tetrahydroisoquinoline ethylbenzamide anti-cancer agents” (Florida A&M University, priority 2017, dated 2020)
